≈ marks a conversion by molar mass, not a printed value. Like-named read-outs stand apart in the source and are kept apart here. Marks after values point to notes of the source that are not given here.
Key:
[1] = test system: P. acnes; experiment: Agar dilution method: growth of P. acnes and MIC, compounds tested singly; type: cell-based, Propionibacterium acnes; design: key to Growth Index (+++, ++, +, −) Plate 1 / Growth Index (+++, ++, +, −) Plate 2 / Growth Index (+++, ++, +, −) Plate 3 / Growth Index (+++, ++, +, −) Avg: +++: confluent growth (comparable to control); ++: less confluent growth; +: marked reduction in growth to multiple tiny, single colonies; −: no growth present; MIC: unit: mg/mL; settings: for MIC: compound alone
Description: (§1) Several compounds including fatty acids such as DGLA, 15-OHEPA, and 15-HETrE were tested to determine their capacity to inhibit the growth of P. acnes. In an exemplary method, an agar dilution method was used to determine the minimum inhibitory concentration (MIC) of each tested compound. Briefly, the agar dilution method involved preparing a series of concentrations of each compound (e.g., nicotinamide, benzoyl peroxide, adapalene, metronidazole, DGLA, 15-OHEPA, and 15-HETrE) in a Reinforced Clostridial Agar (RCA) media that facilitates growth of P. acnes under anaerobic conditions. An inoculum of P. acnes was prepared by incubation of P. acnes for approximately seven days at 35-37° C. to achieve a ≧1.0 OD600 inoculum of P. acnes in RCM broth. A portion of this inoculum was then added to the surface of each plate as a 10 μL spot and incubated at 35-37° C. for 72 hours or more. Growth of P. acnes was then observed and compared to control plates in which no compound has been added, and positive inhibition plates prepared with erythromycin. […] The growth of P. acnes in the presence of nicotinamide, benzoyl peroxide, adapalene, metronidazole, DGLA, 15-OHEPA, and 15-HETrE was determined with varying concentrations of the compound (see, Table 2). Next, the MIC was determined as the concentration at which a marked reduction (+) occurs in the appearance of growth on the test plate (as per Clinical and Laboratory Standards Institute M11-A7).

[2] = test system: P. acnes; experiment: Agar dilution method: growth of P. acnes and MIC, fatty acid compounds in combination with other compounds; type: cell-based, Propionibacterium acnes; settings: for MIC (mg/mL) with 0.05 mg/mL 15-HETrE spike / MIC (mg/mL) with 0.1 mg/mL 15-OHEPA spike: itself an inhibitory concentration; for MIC (mg/mL) with 0.4 mg/mL dGLA spike: dGLA supplied by Sigma, cat# E4504; for MIC (mg/mL) with 1.0 mg/mL dGLA spike: dGLA supplied by Cayman, cat# 90230
Description: as §1, with “M11-A7). The compounds tested singly in Example 1 were tested in combination with one another to determine the capacity of the combination to inhibit the growth of P. acnes. In an exemplary method, the MIC was determined for each of the combination as described in Example 1. Briefly, test combinations included DGLA with nicotinamide, benzoyl peroxide, adapalene, or metronidazole; 15-HETrE with nicotinamide, benzoyl peroxide, adapalene, or metronidazole; and 15-OHEPA with nicotinamide, benzoyl peroxide, adapalene, or metronidazole. The tables below show the growth of P. acnes in the presence of 0.4 or 1.0 mg/mL DGLA with varying concentrations of nicotinamide, benzoyl peroxide, adapalene, or metronidazole (Table 3); the growth of P. acnes in the presence of 0.01 or 0.05 mg/mL 15-HETrE with varying concentrations of nicotinamide, benzoyl peroxide, adapalene, or metronidazole (Table 5); and the growth of P. acnes in the presence of 0.5 or 0.1 mg/mL 15-OHEPA with varying concentrations of nicotinamide, benzoyl peroxide, adapalene, or metronidazole (Table 7).” for “M11-A7).”

[3] = Cutibacterium acnes, MIC = concentration with marked reduction (+) of growth, read-out: MIC (mg/mL) as per P-11-0007 or P-11-0008 Addendum A

Row | SMILES | MIC [1, 3] [mg/mL] | Growth Index (+++, ++, +, −) Avg ([1]; compound at 0.2 mg/mL in agar) | Growth Index (+++, ++, +, −) Plate 1 ([1]; compound at 0.2 mg/mL in agar) | Growth Index (+++, ++, +, −) Plate 2 ([1]; compound at 0.2 mg/mL in agar) | Growth Index (+++, ++, +, −) Plate 3 ([1]; compound at 0.2 mg/mL in agar) | Growth Index (+++, ++, +, −) Avg ([1]; compound at 0.4 mg/mL in agar) | Growth Index (+++, ++, +, −) Plate 1 ([1]; compound at 0.4 mg/mL in agar) | Growth Index (+++, ++, +, −) Plate 2 ([1]; compound at 0.4 mg/mL in agar) | Growth Index (+++, ++, +, −) Plate 3 ([1]; compound at 0.4 mg/mL in agar) | Growth Index (+++, ++, +, −) Avg ([1]; compound at 0.6 mg/mL in agar) | Growth Index (+++, ++, +, −) Plate 1 ([1]; compound at 0.6 mg/mL in agar) | Growth Index (+++, ++, +, −) Plate 2 ([1]; compound at 0.6 mg/mL in agar) | Growth Index (+++, ++, +, −) Plate 3 ([1]; compound at 0.6 mg/mL in agar) | Growth Index (+++, ++, +, −) Avg ([1]; compound at 0.8 mg/mL in agar) | Growth Index (+++, ++, +, −) Plate 1 ([1]; compound at 0.8 mg/mL in agar) | Growth Index (+++, ++, +, −) Plate 2 ([1]; compound at 0.8 mg/mL in agar) | Growth Index (+++, ++, +, −) Plate 3 ([1]; compound at 0.8 mg/mL in agar) | MIC (mg/mL) with 0.05 mg/mL 15-HETrE spike [2] [mg/mL] | MIC (mg/mL) with 0.1 mg/mL 15-OHEPA spike [2] [mg/mL] | growth of P. acnes in combination with 15-OHEPA compared with 15-OHEPA alone [2] | further results
1 | COc1ccc(-c2ccc3cc(C(=O)O)ccc3c2)cc1C12CC3CC(CC(C3)C1)C2 [Adapalene, 6-[3-(1-adamantyl)-4-methoxyphenyl]-2-naphthoic acid] | > 0.8 | +++ | +++ | +++ | +++ | +++ | +++ | +++ | +++ | ++ | ++ | ++ | +++ | ++ | ++ | ++ | ++ | <0.2 | <0.2 | did not reduce the growth of P. Acnes below that of 15 OHEPA used alone | MIC ([1]; no unit in the sentence): > 0.8; MIC (mg/mL) with 0.05 mg/mL 15-OHEPA spike [2]: >0.8 mg/mL; MIC (mg/mL) with 0.4 mg/mL dGLA spike [2]: >0.6* mg/mL; MIC (mg/mL) with 1.0 mg/mL dGLA spike [2]: >0.6* mg/mL; growth of P. acnes in combination with DGLA compared with DGLA alone [2]: did not reduce the growth of P. Acnes below that of DGLA used alone
2 | O=C(OOC(=O)c1ccccc1)c1ccccc1 [Benzoyl Peroxide, benzoyl peroxide] | 0.6 to 0.8 (≈ 2.48 to 3.3 mM) | +++ | +++ | +++ | +++ | +++ | +++ | +++ | +++ | ++ | ++ | +++ | ++ | + | + | + | + | <0.2 | <0.2 |  | growth of P. acnes in combination with 15-HETrE compared with 15-HETrE alone [2]: did not reduce the growth of P. Acnes below that of 15-HETrE used alone
3 | Cc1ncc([N+](=O)[O-])n1CCO [Metronidazole] | > 1 | +++ | +++ | +++ | +++ | +++ | +++ | +++ | +++ | +++ | +++ | +++ | +++ | +++ | +++ | +++ | +++ | <0.2 | <0.2 | did not reduce the growth of P. Acnes below that of 15 OHEPA used alone | Growth Index (+++, ++, +, −) Avg ([1]; compound at 1.0 mg/mL in agar): +++; Growth Index (+++, ++, +, −) Plate 1 ([1]; compound at 1.0 mg/mL in agar): +++; Growth Index (+++, ++, +, −) Plate 2 ([1]; compound at 1.0 mg/mL in agar): ++; Growth Index (+++, ++, +, −) Plate 3 ([1]; compound at 1.0 mg/mL in agar): +++; MIC (mg/mL) with 0.01 mg/mL 15-HETrE spike ([2]; 0.01 mg/mL 15-HETrE spike): >1 mg/mL; MIC (mg/mL) with 0.05 mg/mL 15-OHEPA spike [2]: >1 mg/mL; MIC (mg/mL) with 0.4 mg/mL dGLA spike [2]: >1 mg/mL; MIC (mg/mL) with 1.0 mg/mL dGLA spike [2]: >1 mg/mL; growth of P. acnes in combination with 15-HETrE compared with 15-HETrE alone [2]: did not reduce the growth of P. Acnes below that of 15-HETrE used alone; growth of P. acnes in combination with DGLA compared with DGLA alone [2]: did not reduce the growth of P. Acnes below that of DGLA used alone
4 | NC(=O)c1cccnc1 [Nicotinamide] | 10 to 15 (≈ 81.9 to 123 mM) |  |  |  |  |  |  |  |  |  |  |  |  |  |  |  |  | <1 | <1 | did not reduce the growth of P. Acnes below that of 15 OHEPA used alone | Growth Index (+++, ++, +, −) Avg ([1]; compound at 1 mg/mL in agar): +++; Growth Index (+++, ++, +, −) Plate 1 ([1]; compound at 1 mg/mL in agar): +++; Growth Index (+++, ++, +, −) Plate 2 ([1]; compound at 1 mg/mL in agar): +++; Growth Index (+++, ++, +, −) Plate 3 ([1]; compound at 1 mg/mL in agar): +++; Growth Index (+++, ++, +, −) Avg ([1]; compound at 5 mg/mL in agar): +++; Growth Index (+++, ++, +, −) Plate 1 ([1]; compound at 5 mg/mL in agar): +++; Growth Index (+++, ++, +, −) Plate 2 ([1]; compound at 5 mg/mL in agar): +++; Growth Index (+++, ++, +, −) Plate 3 ([1]; compound at 5 mg/mL in agar): +++; Growth Index (+++, ++, +, −) Avg ([1]; compound at 10 mg/mL in agar): ++; Growth Index (+++, ++, +, −) Plate 1 ([1]; compound at 10 mg/mL in agar): ++; Growth Index (+++, ++, +, −) Plate 2 ([1]; compound at 10 mg/mL in agar): ++; Growth Index (+++, ++, +, −) Plate 3 ([1]; compound at 10 mg/mL in agar): ++; Growth Index (+++, ++, +, −) Avg ([1]; compound at 15 mg/mL in agar): +; Growth Index (+++, ++, +, −) Plate 1 ([1]; compound at 15 mg/mL in agar): −; Growth Index (+++, ++, +, −) Plate 2 ([1]; compound at 15 mg/mL in agar): +; Growth Index (+++, ++, +, −) Plate 3 ([1]; compound at 15 mg/mL in agar): +; growth of P. acnes in combination with 15-HETrE compared with 15-HETrE alone [2]: did not reduce the growth of P. Acnes below that of 15-HETrE used alone; growth of P. acnes in combination with DGLA compared with DGLA alone [2]: did not reduce the growth of P. Acnes below that of DGLA used alone
